Test [1] deals with Mitogen-activated protein kinase 10 (Homo sapiens, UniProt P53779). The test is described as follows: Dose response biochemical screening assay for inhibitors of c-Jun N-Terminal Kinase 3 (JNK3). [Related pubchem assays: 746 ].
Test [2] can be described thus: Luminescence-based cell-based high throughput dose response assay to identify activators of the DAF-12 from the parasite S. stercoralis (ssDAF-12). Format: functional.
The target of test [3] is T1, Oxysterols receptor LXR-beta (Homo sapiens, UniProt P55055).
T1 sequence (P55055 whole entry): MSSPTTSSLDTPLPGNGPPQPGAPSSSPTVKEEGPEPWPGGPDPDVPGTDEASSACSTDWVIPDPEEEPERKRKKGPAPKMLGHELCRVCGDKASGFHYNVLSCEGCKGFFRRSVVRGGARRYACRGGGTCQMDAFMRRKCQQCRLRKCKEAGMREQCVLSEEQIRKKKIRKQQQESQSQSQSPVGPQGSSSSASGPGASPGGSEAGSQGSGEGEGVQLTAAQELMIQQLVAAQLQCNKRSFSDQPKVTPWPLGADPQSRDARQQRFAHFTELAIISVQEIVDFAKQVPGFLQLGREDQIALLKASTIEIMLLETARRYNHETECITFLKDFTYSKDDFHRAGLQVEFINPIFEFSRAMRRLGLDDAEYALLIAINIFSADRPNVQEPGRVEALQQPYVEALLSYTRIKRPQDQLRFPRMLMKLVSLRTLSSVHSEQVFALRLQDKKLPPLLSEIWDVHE
The test is described as follows: LXR agonists, Gal4 luciferase reporter, dose response, counter-screen for ssDAF-12 agonist project, cell-based, luminescence, HEK293, S. stercoralis campaign (AID 720737). Format: functional. The settings on record: read-out: IC50 (the source's name). In general terms: Reporter assays use an easily measured gene product as a stand-in for the process of interest.

In the next test the target is Cytochrome P450 2C19 (Homo sapiens, UniProt P33261). Description: qHTS Assay for Inhibitors and Substrates of Cytochrome P450 2C19. [Related pubchem assays: 410 ]. Format: ADME. The settings on record: read-out: Potency. In general terms: qHTS replaces the single test concentration by a dilution series.
Chain of Cytochrome P450 2C19 (P33261 whole entry): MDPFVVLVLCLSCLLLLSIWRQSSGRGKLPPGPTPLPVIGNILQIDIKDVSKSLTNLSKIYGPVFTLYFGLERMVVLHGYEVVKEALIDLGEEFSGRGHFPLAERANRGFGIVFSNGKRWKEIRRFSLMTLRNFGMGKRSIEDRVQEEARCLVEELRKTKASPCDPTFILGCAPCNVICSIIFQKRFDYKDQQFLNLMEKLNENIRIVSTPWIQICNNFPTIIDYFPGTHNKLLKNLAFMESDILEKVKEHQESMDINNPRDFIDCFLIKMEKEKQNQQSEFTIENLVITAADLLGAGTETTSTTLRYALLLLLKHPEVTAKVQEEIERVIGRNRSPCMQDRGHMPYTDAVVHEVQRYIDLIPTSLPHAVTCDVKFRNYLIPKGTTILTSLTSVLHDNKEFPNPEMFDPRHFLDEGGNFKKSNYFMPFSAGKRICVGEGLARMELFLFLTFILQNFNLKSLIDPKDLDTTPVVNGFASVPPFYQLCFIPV
A short description of test [4]: Trypanosoma cruzi growth suppression in host cells – NIH3T3 host cells, beta-gal luminescence, confirmation (AID 2044).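 Note: intracellular parasites grown in NIH/3T3 mouse fibroblasts as host cells; luminescent beta-galactosidase reporter signal from transgenic T. cruzi replicating inside host cells; inhibitors lower the luminescence signal.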 Format: functional, cell-based.
A short description of test [5]: NIH3T3 cell viability loss – ATP luminescence, mouse fibroblasts, counter-screen, dose response (AID 2010).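 Note: cells exposed to compound for about 90 hours before reading.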 The test is classed as functional, cell-based.
Test [6] concerns the target T2, Dual specificity protein phosphatase 6 (Rattus norvegicus, UniProt Q64346).
T2 sequence (Q64346 whole entry): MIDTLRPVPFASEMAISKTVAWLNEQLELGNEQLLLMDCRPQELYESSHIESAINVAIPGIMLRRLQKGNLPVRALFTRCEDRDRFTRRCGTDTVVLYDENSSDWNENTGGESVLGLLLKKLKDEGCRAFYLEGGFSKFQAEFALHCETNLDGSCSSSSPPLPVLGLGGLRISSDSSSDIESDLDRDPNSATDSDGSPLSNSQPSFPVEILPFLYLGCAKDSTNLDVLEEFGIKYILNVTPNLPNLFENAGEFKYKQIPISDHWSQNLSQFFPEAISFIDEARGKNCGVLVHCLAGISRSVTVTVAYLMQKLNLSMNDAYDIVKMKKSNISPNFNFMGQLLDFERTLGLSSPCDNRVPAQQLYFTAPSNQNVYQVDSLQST
The test is described as follows: inhibition of rat DUSP6 enzyme activity – biochemical, in vitro, primary screen (AID 425).

For a further test, the target named is T3, Bcl-2-related protein A1 (Mus musculus, UniProt Q07440).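 Note: confirmatory dose–response counterscreen on Bfl-1, used to check hits from a UBC13 polyubiquitin inhibitor campaign.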
T3 sequence (Q07440 whole entry): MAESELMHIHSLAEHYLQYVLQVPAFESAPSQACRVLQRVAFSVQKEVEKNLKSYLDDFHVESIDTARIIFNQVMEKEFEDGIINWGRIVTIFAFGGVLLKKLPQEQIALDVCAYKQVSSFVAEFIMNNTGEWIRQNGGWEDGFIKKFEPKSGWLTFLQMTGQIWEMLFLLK
The test is classed as functional.

For test [7], the target named is T4, Ubiquitin-conjugating enzyme E2 N (Homo sapiens, UniProt P61088).
T4 sequence (P61088 whole entry): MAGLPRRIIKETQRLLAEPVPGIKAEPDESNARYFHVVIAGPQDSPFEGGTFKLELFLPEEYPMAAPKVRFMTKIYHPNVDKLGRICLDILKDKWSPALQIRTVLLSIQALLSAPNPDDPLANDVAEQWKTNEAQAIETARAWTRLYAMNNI
Format: functional.

The target in test [8] is T4, Ubiquitin-conjugating enzyme E2 N. Format: functional. This is another data set of the same source.
Test [9] is described as follows: M. tuberculosis H37Rv growth inhibitors, H37Rv strain (AID 1626). Format: functional.
The next test has as its target Estrogen receptor beta (Homo sapiens, UniProt Q92731).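 Note: recombinant ER-beta bound to coactivator SRC1 peptide in presence of estradiol agonist; inhibitors block coactivator peptide binding and lower the FRET signal.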
For another test, the target named is T5, Caspase-3 (Homo sapiens, UniProt P42574).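 Note: Dose-response selectivity test against caspase-3 for candidate inhibitors of sentrin-specific proteases (SENPs).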
T5 sequence (P42574 whole entry): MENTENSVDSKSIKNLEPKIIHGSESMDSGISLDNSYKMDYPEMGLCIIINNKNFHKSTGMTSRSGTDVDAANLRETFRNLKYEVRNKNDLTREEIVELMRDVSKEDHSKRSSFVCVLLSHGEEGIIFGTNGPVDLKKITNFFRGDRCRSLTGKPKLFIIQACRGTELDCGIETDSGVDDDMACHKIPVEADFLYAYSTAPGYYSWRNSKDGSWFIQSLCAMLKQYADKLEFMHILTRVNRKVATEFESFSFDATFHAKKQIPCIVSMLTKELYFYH
The test is classed as functional.

The target of test [10] is T6, Sentrin-specific protease 7 (Homo sapiens, UniProt Q9BQF6).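 Note: Luminescence-based dose-response confirmation of ultra-high-throughput screening hits, measuring inhibition of SENP7.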
T6 sequence (Q9BQF6 whole entry): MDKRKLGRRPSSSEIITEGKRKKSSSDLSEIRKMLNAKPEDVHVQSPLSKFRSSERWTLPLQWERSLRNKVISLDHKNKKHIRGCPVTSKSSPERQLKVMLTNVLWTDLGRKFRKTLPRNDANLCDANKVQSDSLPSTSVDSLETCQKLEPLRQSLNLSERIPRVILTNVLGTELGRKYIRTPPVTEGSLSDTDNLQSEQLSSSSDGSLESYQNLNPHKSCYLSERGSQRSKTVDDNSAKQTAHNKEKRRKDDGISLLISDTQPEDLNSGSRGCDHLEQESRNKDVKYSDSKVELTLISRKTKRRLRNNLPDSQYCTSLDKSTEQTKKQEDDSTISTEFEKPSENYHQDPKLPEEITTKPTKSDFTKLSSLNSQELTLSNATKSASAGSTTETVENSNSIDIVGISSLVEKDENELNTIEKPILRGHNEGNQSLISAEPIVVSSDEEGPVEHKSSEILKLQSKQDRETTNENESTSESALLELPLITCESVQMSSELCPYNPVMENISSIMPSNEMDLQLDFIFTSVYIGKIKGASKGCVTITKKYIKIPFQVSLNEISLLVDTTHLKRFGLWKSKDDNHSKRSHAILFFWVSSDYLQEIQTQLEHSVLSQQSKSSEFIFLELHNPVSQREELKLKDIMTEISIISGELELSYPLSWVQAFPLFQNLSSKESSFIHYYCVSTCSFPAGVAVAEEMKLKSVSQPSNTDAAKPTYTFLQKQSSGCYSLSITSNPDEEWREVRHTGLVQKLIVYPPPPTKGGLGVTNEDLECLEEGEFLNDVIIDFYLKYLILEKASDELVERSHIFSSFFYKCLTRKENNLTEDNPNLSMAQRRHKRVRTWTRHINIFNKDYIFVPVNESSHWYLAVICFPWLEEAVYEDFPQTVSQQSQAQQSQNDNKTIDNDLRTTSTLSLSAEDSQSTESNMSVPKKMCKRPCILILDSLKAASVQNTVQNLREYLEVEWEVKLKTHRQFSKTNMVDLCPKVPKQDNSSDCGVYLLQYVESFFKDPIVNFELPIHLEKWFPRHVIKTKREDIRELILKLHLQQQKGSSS
Format: functional.

Test [11] has as its target T7, Sentrin-specific protease 6 (Homo sapiens, UniProt Q9GZR1).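 Note: Luminescence-based dose-response confirmatory assay of SENP6 inhibition, following up an ultra-high-throughput screen.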
T7 sequence (Q9GZR1 whole entry): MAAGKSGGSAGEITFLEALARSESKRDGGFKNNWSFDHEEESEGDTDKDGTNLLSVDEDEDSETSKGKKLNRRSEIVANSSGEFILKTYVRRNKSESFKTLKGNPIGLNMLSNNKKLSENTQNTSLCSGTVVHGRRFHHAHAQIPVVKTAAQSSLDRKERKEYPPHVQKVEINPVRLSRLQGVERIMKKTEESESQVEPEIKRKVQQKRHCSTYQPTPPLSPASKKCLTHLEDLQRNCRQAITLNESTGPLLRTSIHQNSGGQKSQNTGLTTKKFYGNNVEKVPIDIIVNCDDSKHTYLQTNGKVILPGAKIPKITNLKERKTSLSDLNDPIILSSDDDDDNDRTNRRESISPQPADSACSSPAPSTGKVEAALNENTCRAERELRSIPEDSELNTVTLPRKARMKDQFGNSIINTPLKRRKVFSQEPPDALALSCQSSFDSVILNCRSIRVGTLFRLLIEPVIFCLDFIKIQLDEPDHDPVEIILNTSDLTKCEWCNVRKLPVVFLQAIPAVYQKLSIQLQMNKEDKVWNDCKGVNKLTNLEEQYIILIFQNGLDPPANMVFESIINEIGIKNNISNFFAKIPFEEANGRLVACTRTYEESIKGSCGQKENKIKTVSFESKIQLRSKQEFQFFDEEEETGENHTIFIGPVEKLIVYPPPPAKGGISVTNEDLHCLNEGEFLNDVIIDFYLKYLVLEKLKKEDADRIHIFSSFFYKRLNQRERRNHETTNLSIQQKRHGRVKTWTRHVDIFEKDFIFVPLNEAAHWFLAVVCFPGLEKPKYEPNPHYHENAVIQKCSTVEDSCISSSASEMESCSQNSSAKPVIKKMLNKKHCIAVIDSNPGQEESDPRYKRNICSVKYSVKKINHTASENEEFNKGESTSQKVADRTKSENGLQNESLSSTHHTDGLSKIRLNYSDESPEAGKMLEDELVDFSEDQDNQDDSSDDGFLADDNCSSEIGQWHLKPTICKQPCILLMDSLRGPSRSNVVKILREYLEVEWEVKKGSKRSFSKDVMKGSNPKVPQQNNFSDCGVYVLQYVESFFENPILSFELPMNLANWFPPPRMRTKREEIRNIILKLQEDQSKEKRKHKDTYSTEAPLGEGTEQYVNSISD
The test is classed as functional.

Test [12] concerns the target T8, Sentrin-specific protease 8 (Homo sapiens, UniProt Q96LD8).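 Note: luminescence read-out of SENP8 inhibition, dose-response confirmation following an ultra-high-throughput screen.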
T8 sequence (Q96LD8 whole entry): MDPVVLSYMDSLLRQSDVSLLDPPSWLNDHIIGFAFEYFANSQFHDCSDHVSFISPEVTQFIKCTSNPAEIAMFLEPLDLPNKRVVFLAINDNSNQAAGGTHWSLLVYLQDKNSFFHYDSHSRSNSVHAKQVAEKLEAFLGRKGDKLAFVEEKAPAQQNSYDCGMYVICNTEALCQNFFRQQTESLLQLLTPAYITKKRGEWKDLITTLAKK
The test is classed as functional.

Test [13] concerns the target NAD-dependent protein deacylase sirtuin-5, mitochondrial (Homo sapiens, UniProt Q9NXA8). Description: sirtuin-5 deacylation blockers, concentration series – biochemical, fluorescence imaging, cherry-pick, set 5, dose response (AID 720591).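 Note: desuccinylation of succinyl peptide AMC substrate read as fluorescence after trypsin release; potency of inhibitors that lower fluorescence and may act on trypsin instead.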
In the next test the target is Protein Tat (Human immunodeficiency virus type 1 group M subtype B (isolate HXB2)(HIV-1), UniProt P04608). Format: functional.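 Note: tat binding to TAR RNA read out by fluorescence polarization.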
Chain of Protein Tat (P04608 whole entry): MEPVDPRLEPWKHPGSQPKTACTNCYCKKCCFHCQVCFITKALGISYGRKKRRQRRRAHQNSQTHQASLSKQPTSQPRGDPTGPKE
A short description of test [14]: HIV-1 Vif–A3G interaction blockers – biochemical, TR-FRET, GST-Vif 1-94, biotin-A3G peptide, dose response retest, primary screen (AID 1117319).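 Note: TR-FRET signal of purified GST-Vif binding a biotinylated A3G peptide; inhibitors lower the FRET signal by blocking Vif and A3G binding.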 Format: functional. (In general: Time-resolved FRET reads energy transfer from a long-lived donor to a nearby acceptor.)

Calls of active or inactive are those of the source. A value given as a limit tells only on which side of the number the result lay.

Chain of Mitogen-activated protein kinase 10 (P53779 whole entry): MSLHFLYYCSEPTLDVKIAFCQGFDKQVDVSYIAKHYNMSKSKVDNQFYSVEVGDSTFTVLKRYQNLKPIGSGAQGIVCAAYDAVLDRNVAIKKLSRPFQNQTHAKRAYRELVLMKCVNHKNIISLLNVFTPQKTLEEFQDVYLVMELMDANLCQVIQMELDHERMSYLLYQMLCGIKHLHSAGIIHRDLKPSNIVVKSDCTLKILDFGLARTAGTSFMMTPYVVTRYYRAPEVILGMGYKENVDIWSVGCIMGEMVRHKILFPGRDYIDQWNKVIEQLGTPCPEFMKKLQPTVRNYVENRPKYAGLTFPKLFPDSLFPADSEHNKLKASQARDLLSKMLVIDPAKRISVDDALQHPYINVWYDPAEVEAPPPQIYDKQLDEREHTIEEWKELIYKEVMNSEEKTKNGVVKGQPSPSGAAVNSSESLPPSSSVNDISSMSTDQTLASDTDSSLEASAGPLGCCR
Chain of NAD-dependent protein deacylase sirtuin-5, mitochondrial (Q9NXA8 whole entry): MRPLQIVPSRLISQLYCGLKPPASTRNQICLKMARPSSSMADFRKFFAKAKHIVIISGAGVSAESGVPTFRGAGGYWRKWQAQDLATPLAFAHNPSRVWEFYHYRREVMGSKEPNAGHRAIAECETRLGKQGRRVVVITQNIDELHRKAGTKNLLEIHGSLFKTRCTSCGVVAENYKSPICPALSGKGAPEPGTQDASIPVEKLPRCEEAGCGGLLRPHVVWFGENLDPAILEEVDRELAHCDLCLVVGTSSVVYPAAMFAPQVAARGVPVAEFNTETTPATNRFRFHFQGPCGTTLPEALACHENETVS
Chain of Estrogen receptor beta (Q92731 whole entry): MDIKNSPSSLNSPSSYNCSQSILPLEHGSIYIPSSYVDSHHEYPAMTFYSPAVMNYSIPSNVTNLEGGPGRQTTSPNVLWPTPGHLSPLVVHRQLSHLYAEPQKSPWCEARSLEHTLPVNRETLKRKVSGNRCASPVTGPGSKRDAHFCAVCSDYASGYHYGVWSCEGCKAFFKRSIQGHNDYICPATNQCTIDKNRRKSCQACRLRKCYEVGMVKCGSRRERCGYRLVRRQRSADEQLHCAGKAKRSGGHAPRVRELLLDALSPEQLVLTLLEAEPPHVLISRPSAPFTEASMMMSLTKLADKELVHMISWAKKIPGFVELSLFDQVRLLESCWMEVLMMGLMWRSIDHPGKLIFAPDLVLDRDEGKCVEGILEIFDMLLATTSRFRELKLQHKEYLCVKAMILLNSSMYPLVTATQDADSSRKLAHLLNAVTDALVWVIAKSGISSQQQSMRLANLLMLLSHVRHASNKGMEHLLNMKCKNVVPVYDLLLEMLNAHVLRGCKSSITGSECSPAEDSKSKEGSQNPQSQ

`Cc1ccc(C(=O)OCc2cc3ccccc3nc2O)cc1`: the IC50 (usually the midpoint of a concentration-inhibition curve) in test [1] is > 93.1 µM (not active).
For the compound `CC(=O)NC(=S)Nc1ccccc1C(=O)NC1CCCCC1`, the IC50 in [2] is > 67.6 µM (inactive). Also, the EC50 in test [3] was > 67.6 µM (inactive).
`COc1ccc(OC2C=CC(C#Cc3ccccc3)OC2CO)cc1` (configuration not stated): the AC50 at Cytochrome P450 2C19 is 3.98 µM (inconclusive).
`O=c1cc(CN2CCN(C/C=C/c3ccccc3)CC2)c2cc(O)ccc2o1`: the EC50 was < 0.1 µM (active) in test [4], > 60 µM (not active) in test [5] and 0.101 µM (active) in the test “cells”.
For the compound `CC(=O)[C@@H]1[C@@H]2C(=O)N(c3ccc(F)c(Cl)c3)C(=O)[C@@H]2C2c3ccccc3C=CN21` (some centres not stated), in [6], the IC50 is given as > 100 µM (not active).
With `O=C(CCNC(=O)c1ccccc1Cl)Nc1ccc(Br)c(C(F)(F)F)c1`, the IC50 in [2] was > 67.5 µM (inactive). The EC50 in test [3] is > 67.5 µM (inactive).
In the case of `CN(C)CCCN(C(=O)c1ccc(S(=O)(=O)N2CCCCCC2)cc1)c1nc2cc3c(cc2s1)OCCO3`, the EC50 is < 0.1 µM (active) in [4], > 60 µM (not active) in test [5] and 0.201 µM (active) in “cells”. In addition, the IC50 at Bcl-2-related protein A1 is > 20 µM (inactive); in test [7], 4.41 µM (active); in test [8], 4.63 µM (active).
For the compound `O=C(NCc1ccco1)c1cc2n(n1)C(C(F)(F)F)CC(c1ccc(Cl)c(Cl)c1)N2` (configuration not stated), the IC50 in [9] was > 100 µM (active). The EC50 in test [4] is 3.86 µM (active); in test [5], 7.67 µM (active).
In the case of `CCN1CCC(C(N)=O)CC1`, at Estrogen receptor beta, the IC50 is > 50 µM (not active).
For `Cc1c(NC(=O)c2ccc(NC(=O)C3CC3)cc2)cccc1C(=O)O`, the IC50 at Caspase-3 is 43.8 µM (active); in test [10], 6.21 µM (active); in test [11], 18.5 µM (active); in [12], 25.8 µM (active). In addition, the AC50 in test [13] is 10.7 µM (active).
Take `O=C(N/N=C/c1ccc[nH]1)c1cccnc1`: the IC50 (on Protein Tat; in test [14]) was > 100 µM (active) throughout.

For the origin of these results see ChEMBL document CHEMBL1201862, “PubChem BioAssay data set” (2004).
